Measured values: the supplement of paper PMC4858399
Counter-ions that a name gives are not always drawn.

Tests used:
Conditions in all cases: exposure time 48 h
[1] = tested on: Caenorhabditis elegans N2; assay: AC50 for larval growth inhibition (Hill fit); higher = less potent
Method in brief: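 Synchronised C. elegans N2 L1 larvae (50 per well, 96-well plates) were grown for 48 h at 20°C in K-medium with killed OP50, 1% DMSO and 0.5–200 µM chemical. The COPAS Biosort measured each worm's size as extinction, which was log-transformed and averaged per well. AC50 came from a constrained Hill fit by weighted genetic-algorithm regression on wells with at least 10 worms. Out-of-range values are censored.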

[2] = tested on: Caenorhabditis elegans N2; assay: lowest effective concentration for larval growth inhibition (size below effect threshold); higher = less potent
Method in brief: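 L1 larvae of C. elegans N2 (50 per 96-well) were grown in K-medium with killed bacteria and 1% DMSO, with the chemical at 0.5, 1, 5, 10, 50, 100 or 200 µM, for 48 h at 20°C. Per-worm extinction from the Biosort stood for size and was log-transformed into well means. For each chemical, the lowest effective concentration is the first dose where plate-adjusted mean size falls under the threshold and stays under it at the higher doses, using a threshold of 5.665.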

[3] = tested on: Caenorhabditis elegans N2; assay: mean nematode size ln(EXT) after 48 h, plate-adjusted (DMSO control set to 6) (ln(EXT), control-adjusted); higher = larger nematodes / less growth inhibition
Method in brief: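 Worms were measured individually for extinction on the Biosort after 48 h at 20°C. They began as synchronised C. elegans N2 L1 larvae in K-medium with killed OP50, 1% DMSO and 0.5–200 µM chemical. Once debris had been removed by a growth model, values were natural-logged and averaged per well to give mean size. The plate adjustment subtracted the vehicle control mean and added 6.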

Structure (SMILES)	AC50 for larval growth inhibition [1]	lowest effective concentration [2]	mean nematode size ln(EXT) (ln) ([3]; 0.5 µM)	mean nematode size ln(EXT) (ln) ([3]; 1 µM)	mean nematode size ln(EXT) (ln) ([3]; 5 µM)	mean nematode size ln(EXT) (ln) ([3]; 10 µM)	mean nematode size ln(EXT) (ln) ([3]; 50 µM)	mean nematode size ln(EXT) (ln) ([3]; 100 µM)	mean nematode size ln(EXT) (ln) ([3]; 200 µM)
Cc1cccc(N)c1N [3-Methylbenzene-1,2-diamine]	> 200 µM	200 µM	6.01	5.93	5.87	5.79	5.78	5.79	5.05
CC1COC(Cn2cncn2)(c2ccc(Oc3ccc(Cl)cc3)cc2Cl)O1 (stereo not drawn) [Difenoconazole]	1.84 µM	5 µM	4.06	5.79	3.52	5.15	3.59	3.58	3.51
O=C(N[C@@H](c1ccccc1)[C@@H]1CCCCN1)c1cccc(C(F)(F)F)c1Cl	148 µM	10 µM	5.86	5.78	5.75	5.66	5.2	4.58	4.47
c1ccc2cc3ccccc3cc2c1 [Anthracene]	2.12 µM	5 µM	5.97	5.76	4.34	3.78	4.06	4.36	4.12
Cc1cc2c(cc1C(F)(F)F)N(C(=O)Nc1ccc(Oc3cccnc3C)nc1)CC2	> 200 µM	200 µM	5.88	5.73	5.86	5.71	5.75	5.67	5.57
CN(C)c1ccc(N=NS(=O)(=O)O)cc1 [Fenaminosulf]	54.8 µM	50 µM	5.95	5.88	5.79	5.86	4.72	3.9	3.5
CCCCCCCCCCCCc1ccccc1S(=O)(=O)O [Dodecylbenzenesulfonic acid, Na salt]	50.2 µM	50 µM	5.73	5.72	5.8	5.99	4.92	3.85	3.24
Cc1c(C)c2c(c(C)c1O)CCC(C)(COc1ccc(CC3SC(=O)NC3=O)cc1)O2 (stereo not drawn) [Troglitazone]	47.7 µM	50 µM	5.7	5.77	5.66	5.69	4.39	4.11	3.59
CC1(C)CC(N=C=O)CC(C)(CN=C=O)C1 (mixture of isomers) [Isophorone diisocyanate, mixture of isomers]	> 200 µM	100 µM	5.94	5.89	5.97	5.71	5.76	5.37	4.55
On1ccccc1=S [Sodium (2-pyridylthio)-N-oxide]	> 200 µM	200 µM	5.88	5.86	5.84	5.87	5.74	5.74	5.51
Clc1ccc(C(c2ccccc2Cl)C(Cl)(Cl)Cl)cc1 (stereo not drawn) [o,p'-DDT]	24.1 µM	10 µM	5.7	5.89	5.78	5.19	4.4	4.09	3.85
CC(COc1ccc(Oc2ccccc2)cc1)Oc1ccccn1 (stereo not drawn) [Pyriproxyfen]	1.37 µM	≤ 0.5 µM	5.55	5.44	5.14	4.87	4.84	4.7	4.81
CCc1cccc(C)c1N(C(=O)CCl)C(C)COC (stereo not drawn) [Metolachlor]	> 200 µM	50 µM	5.64	5.7	5.74	5.81	5.63	5.63	5.64
OCCC(F)(F)C(F)(F)C(F)(F)C(F)(F)C(F)(F)C(F)(F)F [1-Octanol, 3,3,4,4,5,5,6,6,7,7,8,8,8-tridecafluoro-]	> 200 µM	200 µM	5.87	5.92	5.88	5.94	5.91	5.77	5.65
COc1cc(C(C)C)c2c(c1)S(=O)(=O)N(COc1cc(=O)n3cccc(OCCN4CCCCC4)c3n1)C2=O	> 200 µM	200 µM	5.91	5.92	5.88	5.88	5.87	5.72	5.47
C=CCOC(=O)c1ccccc1C(=O)OCC=C [Diallyl phthalate]	> 200 µM	200 µM	5.88	5.92	5.94	5.96	5.88	5.84	5.65
COc1nc(NC(C)C)nc(NC(C)C)n1 [Prometon]	> 200 µM	100 µM	5.72	5.83	5.84	5.75	5.87	5.61	5.53
Cc1cnc(C2=NC(=O)C(C)(C(C)C)N2)c(C(=O)O)c1 (stereo not drawn) [Imazapic]	79.6 µM	50 µM	5.98	6.06	6.04	6.23	5.45	4.31	3.54
Cc1ccccc1CO[C@@H]1C[C@@]2(C(C)C)CCC1(C)O2 [Cinmethylin]	> 200 µM	200 µM	5.94	5.99	6	6.07	5.92	5.77	4.9
Cc1oc(-c2ccccc2)nc1CCOc1ccc(C[C@H](Nc2ccccc2C(=O)c2ccccc2)C(=O)O)cc1 [Farglitazar]	39 µM	50 µM	5.87	5.89	5.92	6.19	4.95	4.73	4.48
CN[C@H]1CC[C@@H](c2ccc(Cl)c(Cl)c2)c2ccc(S(N)(=O)=O)cc21	90.3 µM	50 µM	5.87	5.84	5.88	5.84	5.4	4.42	3.62
Oc1c(Cl)cc(Cl)cc1Cl [2,4,6-Trichlorophenol]	> 200 µM	200 µM	5.87	5.85	5.9	5.83	5.82	5.87	5.66
